Results on one molecule are retold here after paper PMC7782785, “Outer-membrane-acting peptides and lipid II-targeting antibiotics cooperatively kill Gram-negative pathogens” (Communications Biology, 2021).

In one data set the test system is K. pneumoniae ATCC700603. In words: Synergy test, checkerboard broth microdilution. It is filed as cell-based. The method, then: For the synergy test, standard checkerboard broth microdilution assays were conducted to test the synergistic effect of combined antimicrobials using the same condition as before[51],[56]. […] The initial concentration of both peptides was their individual MIC. 50 µL fresh bacterial suspension prepared as above was added to the wells already containing the antimicrobial compound mixture to achieve 100 µL final volume per well.
The fractional inhibitory concentration (FIC) indices[57] were calculated using the formula FICI = FICa + FICb = MICac/MICa + MICbc/MICb, to determine whether the combination is additive, synergistic or antagonistic[51],[57]. The MICa and MICb is the MIC of compound A or B alone, respectively. MICac is the MIC of compound A in combination with compound B and MICbc is the MIC of compound B when it was combined with compound A. The FIC corresponds to the MIC of a compound in combination with the other compound, divided by the MIC of the compound alone. FICa is FIC of compound A while FICb is FIC of compound B. The FICI was interpreted according to EUCAST[58] as follows: synergistic, FICI ≤ 0.5; additive,0.5 < FICI ≤ 1; indifferent, 1 < FICI < 2; antagonistic, FICI ≥ 2.
On the technique in general: In broth dilution the organism is exposed to a series of concentrations in liquid medium.

Data set [1] deals with human red blood cells (hRBCs). Briefly: Hemolytic activity. The method, then: Hemolytic activity was determined with fresh human red blood cells (hRBCs)[28]. The hRBCs were centrifuged (1000×g, 5 min) and the supernatant was discarded. The pellets were washed three times with PBS and diluted in PBS to make the cell stock solution with a cell density of 2*10^8 cells/mL. […] 1% Triton X-100 and PBS were used as controls. The cells were incubated at 37 °C for 1 h and centrifuged at 2000 rpm for 5 min. The supernatant was transferred to a new 96-well plate and hemolysis was monitored by measuring the absorbance at 450 nm (OD450). Hemolysis levels were calculated as percentage. % hemolysis = 100 × (As−A0)/(At−A0), where As, A0, and At are the absorbance of the hRBCs suspension in PBS with antimicrobial agents (As), without antimicrobial agents (A0), and with 1% Triton X-100 (At). […] For the TI calculation (TI = MHC/GM), other factors as the GM (geometric mean of MIC value of all the Gram-negative strains tested) were calculated.

For another data set, the system named is P. aeruginosa PA14. Briefly: Murine abscess model. It is filed as in vivo, BALB/c mice. The method, then:
An overnight P. aeruginosa PA14 culture was inoculated into fresh LB medium (100-fold dilution) and grown until an OD600 of 1.0. The culture was washed twice and resuspended in 0.9% NaCl to 10^8 CFU/mL. Four groups of five 6-week-old female BALB/c mice were used. […] After 24 h, the mice were sacrificed and the abscesses were excised to count the CFU. The bacterial loads were determined by serial dilution and plating. All animal experiments complied with the US and Chinese national guidelines for the use of animals in research. The protocol was approved by the Animal Care and Use Committee of the College of Life Sciences, Nankai University (permission number NK-04-2012). All procedures involving animals were performed after animals were anesthetized. The experimental results were analyzed with the GraphPad Prism software.

For the molecule `CN[C@H](CC(C)C)C(=O)N[C@H]1C(=O)N[C@@H](CC(N)=O)C(=O)N[C@H]2C(=O)N[C@H]3C(=O)N[C@H](C(=O)N[C@H](C(=O)O)c4cc(O)cc(O)c4-c4cc3ccc4O)[C@H](O)c3ccc(c(Cl)c3)Oc3cc2cc(c3O[C@@H]2O[C@H](CO)[C@@H](O)[C@H](O)[C@H]2O[C@H]2C[C@](C)(N)[C@H](O)[C@H](C)O2)Oc2ccc(cc2Cl)[C@H]1O` [Vancomycin], the “MICAB: MIC of vancomycin in combination with D-11 at the MICAC concentration” value in the data set on K. pneumoniae ATCC700603 was found to be 11.04 µM. Further, in data set [1], the “HC50, concentration that causes 50% hemolysis of hRBCs” value is reported as more than 500 µM. Moreover, in data set [1], the “MHA, mean hemolytic activity” value was 0%. Moreover, the “MHC, minimal hemolytic concentration that caused 10% hemolysis of hRBCs” value in data set [1] is reported as 1000 µM. The “hemolysis of hRBCs” value in data set [1] is listed as “did not cause any hemolysis”. Moreover, the “log10 CFU per abscess” value in the data set on P. aeruginosa PA14 (mouse 1 of 5, P. aeruginosa PA14 s.c., treatment injected into infection area 1 h post-infection, 24 h, vancomycin 3 mg/kg, D-11 10 mg/kg, or both) is 8.341 log10 CFU per abscess; with P. aeruginosa PA14 (mouse 2 of 5, same conditions) it was 7.354 log10 CFU per abscess; in the data set on P. aeruginosa PA14 (mouse 3 of 5, same conditions), 7.321 log10 CFU per abscess; in the data set on P. aeruginosa PA14 (mouse 4 of 5, same conditions) it was 7.43 log10 CFU per abscess; in the data set on P. aeruginosa PA14 (mouse 5 of 5, same conditions), 7.5121 log10 CFU per abscess.
